Measured values from patent US20100298141A1, “SUBSTITUTED PYRIDINE N-OXIDE HERBICIDES” (E. I. DU PONT DE NEMOURS AND COMPANY, priority 2007, published 2010).

Legend:
[1] = tested on: common (oilseed) sunflower; test: Test C pre-/postemergence test; type: in vivo, Helianthus annuus; details: for Sunflower plant response rating: preemergence, scale 0 (no effect) to 100 (complete control)
Procedure, shortened: (§1)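 Compounds in a non-phytotoxic solvent with surfactant applied preemergence to seeded pots and, at the same time, postemergence to plants 2–18 cm tall (1- to 4-leaf stage). Paddy tests: pots flooded to 3 cm, compound applied into the water, depth held throughout.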

pigweed = test: Test C pre-/postemergence test; type: in vivo, Amaranthus retroflexus; details: for Plant response rating, Pigweed: scale 0 to 100, 0 no effect, 100 complete control
Procedure, shortened: as §1

corn = test: Test C pre-/postemergence test; type: in vivo, Zea mays; details: for Plant response rating, Corn: scale 0 to 100, 0 no effect, 100 complete control
Procedure, shortened: as §1

soybean = test: Test C pre-/postemergence test; type: in vivo, Glycine max; details: for Plant response rating, Soybean: scale 0 to 100, 0 no effect, 100 complete control
Procedure, shortened: as §1

kochia = test: Test C pre-/postemergence test; type: in vivo, Kochia scoparia; details: for Plant response rating, Kochia: scale 0 to 100, 0 no effect, 100 complete control
Procedure, shortened: as §1

morningglory [2] = test: Test A pre-/postemergence greenhouse test; type: in vivo, Ipomoea spp.; details: for Morningglory plant response rating: 0 to 100 scale
Procedure, shortened: (§2)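 Each test compound, dissolved in a non-phytotoxic solvent mixture with surfactant, was sprayed directly onto seeded soil (loam/sand blend) and, at the same moment, onto seedlings carrying one to two leaves. Around ten greenhouse days later, plants were rated visually for injury relative to untreated controls.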

morningglory [3] = test: Test C pre-/postemergence test; type: in vivo, Ipomoea coccinea; details: for Plant response rating, Morningglory: scale 0 to 100, 0 no effect, 100 complete control
Procedure, shortened: as §1

blackgrass = test: Test C pre-/postemergence test; type: in vivo, Alopecurus myosuroides; details: for Plant response rating, Blackgrass: scale 0 to 100, 0 no effect, 100 complete control
Procedure, shortened: as §1

yellow nutsedge = test: Test C pre-/postemergence test; type: in vivo, Cyperus esculentus; details: for Plant response rating, Nutsedge, Yellow: scale 0 to 100, 0 no effect, 100 complete control
Procedure, shortened: as §1

Italian ryegrass = test: Test C pre-/postemergence test; type: in vivo, Lolium multiflorum; details: for Plant response rating, Ryegrass, Italian: scale 0 to 100, 0 no effect, 100 complete control
Procedure, shortened: as §1

woolly cupgrass = test: Test C pre-/postemergence test; type: in vivo, Eriochloa villosa; details: for Plant response rating, Cupgrass, Woolly: scale 0 to 100, 0 no effect, 100 complete control
Procedure, shortened: as §1

green foxtail = test: Test C pre-/postemergence test; type: in vivo, Setaria viridis; details: for Plant response rating, Foxtail, Green: scale 0 to 100, 0 no effect, 100 complete control
Procedure, shortened: as §1

barnyardgrass = test: Test A pre-/postemergence greenhouse test; type: in vivo, Echinochloa crus-galli; details: for Barnyardgrass plant response rating: 0 to 100 scale
Procedure, shortened: as §2

crabgrass = test: Test C pre-/postemergence test; type: in vivo, Digitaria sanguinalis; details: for Plant response rating, Crabgrass, Large: scale 0 to 100, 0 no effect, 100 complete control
Procedure, shortened: as §1

wheat = test: Test C pre-/postemergence test; type: in vivo, Triticum aestivum; details: for Wheat plant response rating: preemergence, scale 0 (no effect) to 100 (complete control); for Plant response rating, Wheat: scale 0 to 100, 0 no effect, 100 complete control
Procedure, shortened: as §1

cocklebur = test: Test C pre-/postemergence test; type: in vivo, Xanthium strumarium; details: for Plant response rating, Cocklebur: scale 0 to 100, 0 no effect, 100 complete control
Procedure, shortened: as §1

[4] = 31 g ai/ha, Preemergence, scale 0 to 100
[5] = 62 g ai/ha, preemergence, scale 0 (no effect) to 100 (complete control)
[6] = preemergence, 125 g ai/ha, scale 0 (no effect) to 100 (complete control)
[7] = Postemergence, 125 g ai/ha, 0 is no effect, 100 is complete control
[8] = Postemergence, 500 g ai/ha, 0 is no effect, 100 is complete control
[9] = Preemergence, 125 g ai/ha, 0 no effect, 100 complete control
[10] = Preemergence, 500 g ai/ha, 0 to 100 scale where 0 is no effect and 100 is complete control

Cn1nc(C(F)(F)F)c(C[S+]([O-])c2cccc[n+]2[O-])c1OC(F)F (stereo not drawn) [Compound 3]
55: Plant response rating, Foxtail, Green (green foxtail; Postemergence, 250 g ai/ha)
10: Plant response rating, Pigweed (pigweed; Postemergence, 125 g ai/ha) | Plant response rating, Kochia (kochia; Postemergence, 125 g ai/ha) | Plant response rating, Kochia (kochia; Postemergence, 250 g ai/ha) | Plant response rating, Foxtail, Green (green foxtail; Postemergence, 125 g ai/ha) | Plant response rating, Cocklebur (cocklebur; Postemergence, 250 g ai/ha)
20: Plant response rating, Blackgrass (blackgrass; Postemergence, 250 g ai/ha) | Plant response rating, Cupgrass, Woolly (woolly cupgrass; Postemergence, 125 g ai/ha) | Wheat plant response rating (wheat; 62 g ai/ha)
80: Kochia plant response rating (kochia; [4]) | Morningglory plant response rating (morningglory [2]; [9]) | Barnyardgrass plant response rating (barnyardgrass; [7]) | Barnyardgrass plant response rating (barnyardgrass; [9]) | Plant response rating (0 to 100), Wheat (wheat; Preemergence, 250 g ai/ha)
70: Sunflower plant response rating ([1]; 125 g ai/ha) | Plant response rating, Soybean (soybean; Postemergence, 125 g ai/ha) | Morningglory plant response rating (morningglory [2]; [7]) | Blackgrass plant response rating (blackgrass; [4]) | Blackgrass plant response rating (blackgrass; [5]) | Plant response rating, Crabgrass, Large (crabgrass; Postemergence, 250 g ai/ha) | Wheat plant response rating (wheat; 125 g ai/ha)
0: Plant response rating (0 to 100), Pigweed (pigweed; Postemergence, 31 g ai/ha) | Plant response rating (0 to 100), Pigweed (pigweed; Postemergence, 62 g ai/ha) | Plant response rating (0 to 100), Corn (corn; Postemergence, 31 g ai/ha) | Plant response rating (0 to 100), Blackgrass (blackgrass; Postemergence, 31 g ai/ha) | Plant response rating, Blackgrass (blackgrass; Postemergence, 62 g ai/ha) | Plant response rating, Blackgrass (blackgrass; Postemergence, 125 g ai/ha) | Nutsedge, Yellow plant response rating (yellow nutsedge; [4]) | Plant response rating (0 to 100), Nutsedge, Yellow (yellow nutsedge; Postemergence, 31 g ai/ha) | Plant response rating, Nutsedge, Yellow (yellow nutsedge; Postemergence, 62 g ai/ha) | Plant response rating, Nutsedge, Yellow (yellow nutsedge; Postemergence, 125 g ai/ha) | Plant response rating, Nutsedge, Yellow (yellow nutsedge; Postemergence, 250 g ai/ha) | Plant response rating (0 to 100), Ryegrass, Italian (Italian ryegrass; Postemergence, 31 g ai/ha) | Plant response rating (0 to 100), Ryegrass, Italian (Italian ryegrass; Postemergence, 62 g ai/ha) | Plant response rating, Ryegrass, Italian (Italian ryegrass; Postemergence, 125 g ai/ha) | Plant response rating (0 to 100), Cupgrass, Woolly (woolly cupgrass; Postemergence, 31 g ai/ha) | Plant response rating, Cupgrass, Woolly (woolly cupgrass; Postemergence, 62 g ai/ha) | Plant response rating (0 to 100), Foxtail, Green (green foxtail; Postemergence, 31 g ai/ha) | Plant response rating, Foxtail, Green (green foxtail; Postemergence, 62 g ai/ha) | Plant response rating (0 to 100), Crabgrass, Large (crabgrass; Postemergence, 31 g ai/ha) | Plant response rating, Crabgrass, Large (crabgrass; Postemergence, 62 g ai/ha) | Plant response rating (0 to 100), Wheat (wheat; Postemergence, 31 g ai/ha) | Plant response rating (0 to 100), Wheat (wheat; Postemergence, 62 g ai/ha) | Plant response rating, Wheat (wheat; Postemergence, 125 g ai/ha) | Plant response rating, Wheat (wheat; Postemergence, 250 g ai/ha) | Cocklebur plant response rating (cocklebur; [4]) | Cocklebur plant response rating (cocklebur; [5]) | Plant response rating (0 to 100), Cocklebur (cocklebur; Postemergence, 31 g ai/ha) | Plant response rating, Cocklebur (cocklebur; Postemergence, 62 g ai/ha) | Plant response rating, Cocklebur (cocklebur; Postemergence, 125 g ai/ha) | Cocklebur plant response rating (cocklebur; [6])
30: Soybean plant response rating (soybean; [5])
15: Sunflower plant response rating ([1]; 62 g ai/ha)
95: Plant response rating (0 to 100), Sunflower ([1]; Preemergence, 250 g ai/ha) | Plant response rating (0 to 100), Soybean (soybean; Preemergence, 250 g ai/ha) | Soybean plant response rating (soybean; [6])
60: Plant response rating, Pigweed (pigweed; Postemergence, 250 g ai/ha) | Plant response rating (0 to 100), Soybean (soybean; Postemergence, 62 g ai/ha) | Ryegrass, Italian plant response rating (Italian ryegrass; [4]) | Cupgrass, Woolly plant response rating (woolly cupgrass; [4]) | Cupgrass, Woolly plant response rating (woolly cupgrass; [5])
45: Crabgrass, Large plant response rating (crabgrass; [4])
75: Pigweed plant response rating (pigweed; [4]) | Corn plant response rating (corn; [5]) | Foxtail, Green plant response rating (green foxtail; [4])
90: Corn plant response rating (corn; [6]) | Morningglory plant response rating (morningglory [2]; [8]) | Morningglory plant response rating (morningglory [3]; [5]) | Barnyardgrass plant response rating (barnyardgrass; [8])
5: Plant response rating, Corn (corn; Postemergence, 62 g ai/ha) | Plant response rating, Corn (corn; Postemergence, 125 g ai/ha) | Plant response rating, Corn (corn; Postemergence, 250 g ai/ha) | Soybean plant response rating (soybean; [4]) | Plant response rating (0 to 100), Kochia (kochia; Postemergence, 31 g ai/ha) | Plant response rating, Kochia (kochia; Postemergence, 62 g ai/ha) | Plant response rating (0 to 100), Morningglory (morningglory [3]; Postemergence, 31 g ai/ha) | Plant response rating (0 to 100), Cocklebur (cocklebur; Preemergence, 250 g ai/ha)
100: Pigweed plant response rating (pigweed; [5]) | Plant response rating (0 to 100), Pigweed (pigweed; Preemergence, 250 g ai/ha) | Pigweed plant response rating (pigweed; [6]) | Kochia plant response rating (kochia; [5]) | Plant response rating (0 to 100), Kochia (kochia; Preemergence, 250 g ai/ha) | Kochia plant response rating (kochia; [6]) | Plant response rating, Morningglory (morningglory [2]; [10]) | Plant response rating (0 to 100), Morningglory (morningglory [3]; Preemergence, 250 g ai/ha) | Morningglory plant response rating (morningglory [3]; [6]) | Plant response rating (0 to 100), Blackgrass (blackgrass; Preemergence, 250 g ai/ha) | Blackgrass plant response rating (blackgrass; [6]) | Nutsedge, Yellow plant response rating (yellow nutsedge; [5]) | Plant response rating (0 to 100), Nutsedge, Yellow (yellow nutsedge; Preemergence, 250 g ai/ha) | Nutsedge, Yellow plant response rating (yellow nutsedge; [6]) | Ryegrass, Italian plant response rating (Italian ryegrass; [5]) | Plant response rating (0 to 100), Ryegrass, Italian (Italian ryegrass; Preemergence, 250 g ai/ha) | Ryegrass, Italian plant response rating (Italian ryegrass; [6]) | Plant response rating (0 to 100), Cupgrass, Woolly (woolly cupgrass; Preemergence, 250 g ai/ha) | Plant response rating (0 to 100), Foxtail, Green (green foxtail; Preemergence, 250 g ai/ha) | Plant response rating, Barnyardgrass (barnyardgrass; [10]) | Plant response rating (0 to 100), Crabgrass, Large (crabgrass; Preemergence, 250 g ai/ha) | Crabgrass, Large plant response rating (crabgrass; [6])
85: Plant response rating, Soybean (soybean; Postemergence, 250 g ai/ha) | Cupgrass, Woolly plant response rating (woolly cupgrass; [6]) | Foxtail, Green plant response rating (green foxtail; [5])
98: Plant response rating (0 to 100), Corn (corn; Preemergence, 250 g ai/ha) | Foxtail, Green plant response rating (green foxtail; [6]) | Crabgrass, Large plant response rating (crabgrass; [5])
40: Plant response rating (0 to 100), Soybean (soybean; Postemergence, 31 g ai/ha) | Plant response rating, Ryegrass, Italian (Italian ryegrass; Postemergence, 250 g ai/ha) | Plant response rating, Cupgrass, Woolly (woolly cupgrass; Postemergence, 250 g ai/ha)
50: Corn plant response rating (corn; [4]) | Morningglory plant response rating (morningglory [3]; [4]) | Plant response rating, Morningglory (morningglory [3]; Postemergence, 62 g ai/ha) | Plant response rating, Morningglory (morningglory [3]; Postemergence, 125 g ai/ha) | Plant response rating, Morningglory (morningglory [3]; Postemergence, 250 g ai/ha) | Plant response rating, Crabgrass, Large (crabgrass; Postemergence, 125 g ai/ha)
